Tests used:
Assay in all cases: relative viability (nuclei count vs DMSO), 5 days (fraction); higher = more cells survive
201T = system: 201T
Outline: (§1)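 Relative viability equals treated-well nuclei counts divided by vehicle-well nuclei counts. Counts came from 4× images of lung cancer cell lines grown in 1536-well plates for 5 days after pin-tool dosing on the day after seeding. Dosing used one drug alone or a fixed anchor-drug dose plus five library-drug doses (not always all listed) in √10 steps, and values are medians of duplicate plates.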

A-427 = system: A-427
Outline: as §1

BEN = system: BEN
Outline: as §1

COR-L 105 = system: COR-L 105
Outline: as §1

COR-L23 = system: COR-L23
Outline: as §1

EKVX = system: EKVX
Outline: as §1

HARA = system: HARA
Outline: as §1

HCC-15 = system: HCC-15
Outline: as §1

HCC-44 = system: HCC-44
Outline: as §1

HCC-827 = system: HCC-827
Outline: as §1

LK-2 = system: LK-2
Outline: as §1

NCI-H1437 = system: NCI-H1437
Outline: as §1

NCI-H1666 = system: NCI-H1666
Outline: as §1

NCI-H1792 = system: NCI-H1792
Outline: as §1

NCI-H1975 = system: NCI-H1975
Outline: as §1

NCI-H23 = system: NCI-H23
Outline: as §1

NCI-H358 = system: NCI-H358
Outline: as §1

NCI-H441 = system: NCI-H441
Outline: as §1

NCI-H650 = system: NCI-H650
Outline: as §1

NCI-H838 = system: NCI-H838
Outline: as §1

SK-MES-1 = system: SK-MES-1
Outline: as §1

SW 900 = system: SW 900
Outline: as §1

Compound: CC1(C)CCC(c2ccc(Cl)cc2)=C(CN2CCN(c3ccc(C(=O)NS(=O)(=O)c4ccc(N[C@H](CCN5CCOCC5)CSc5ccccc5)c(S(=O)(=O)C(F)(F)F)c4)cc3)CC2)C1 [Navitoclax] + CC(=O)c1c(C)c2cnc(Nc3ccc(N4CCNCC4)cn3)nc2n(C2CCCC2)c1=O [Palbociclib] (partner 0.5 µM)
- relative viability (201T; first compound 0.005 µM): 0.342
- relative viability (201T; first compound 0.01581 µM): 0.347
- relative viability (201T; first compound 0.05 µM): 0.362
- relative viability (201T; first compound 0.1581 µM): 0.365
- relative viability (201T; first compound 0.5 µM): 0.355
- relative viability (A-427; first compound 0.005 µM): 0.502
- relative viability (A-427; first compound 0.01581 µM): 0.512
- relative viability (A-427; first compound 0.05 µM): 0.516
- relative viability (A-427; first compound 0.1581 µM): 0.514
- relative viability (A-427; first compound 0.5 µM): 0.53
- relative viability (BEN; first compound 0.005 µM): 0.475
- relative viability (BEN; first compound 0.01581 µM): 0.525
- relative viability (BEN; first compound 0.05 µM): 0.462
- relative viability (BEN; first compound 0.1581 µM): 0.399
- relative viability (BEN; first compound 0.5 µM): 0.268
- relative viability (COR-L 105; first compound 0.005 µM): 0.408
- relative viability (COR-L 105; first compound 0.01581 µM): 0.46
- relative viability (COR-L 105; first compound 0.05 µM): 0.39
- relative viability (COR-L 105; first compound 0.1581 µM): 0.427
- relative viability (COR-L 105; first compound 0.5 µM): 0.34
- relative viability (COR-L23; first compound 0.005 µM): 0.36
- relative viability (COR-L23; first compound 0.01581 µM): 0.309
- relative viability (COR-L23; first compound 0.05 µM): 0.28
- relative viability (COR-L23; first compound 0.1581 µM): 0.331
- relative viability (COR-L23; first compound 0.5 µM): 0.278
- relative viability (EKVX; first compound 0.005 µM): 0.44
- relative viability (EKVX; first compound 0.01581 µM): 0.405
- relative viability (EKVX; first compound 0.05 µM): 0.422
- relative viability (EKVX; first compound 0.1581 µM): 0.403
- relative viability (EKVX; first compound 0.5 µM): 0.388
- relative viability (HARA; first compound 0.005 µM): 0.236
- relative viability (HARA; first compound 0.01581 µM): 0.271
- relative viability (HARA; first compound 0.05 µM): 0.243
- relative viability (HARA; first compound 0.1581 µM): 0.191
- relative viability (HARA; first compound 0.5 µM): 0.216
- relative viability (HCC-15; first compound 0.005 µM): 0.738
- relative viability (HCC-15; first compound 0.01581 µM): 0.77
- relative viability (HCC-15; first compound 0.05 µM): 0.655
- relative viability (HCC-15; first compound 0.1581 µM): 0.773
- relative viability (HCC-15; first compound 0.5 µM): 0.687
- relative viability (HCC-44; first compound 0.005 µM): 0.968
- relative viability (HCC-44; first compound 0.01581 µM): 0.919
- relative viability (HCC-44; first compound 0.05 µM): 0.947
- relative viability (HCC-44; first compound 0.1581 µM): 0.893
- relative viability (HCC-44; first compound 0.5 µM): 0.956
- relative viability (HCC-827; first compound 0.005 µM): 0.582
- relative viability (HCC-827; first compound 0.01581 µM): 0.528
- relative viability (HCC-827; first compound 0.05 µM): 0.374
- relative viability (HCC-827; first compound 0.1581 µM): 0.477
- relative viability (HCC-827; first compound 0.5 µM): 0.437
- relative viability (LK-2; first compound 0.005 µM): 0.588
- relative viability (LK-2; first compound 0.01581 µM): 0.925
- relative viability (LK-2; first compound 0.05 µM): 0.661
- relative viability (LK-2; first compound 0.1581 µM): 0.502
- relative viability (LK-2; first compound 0.5 µM): 0.758
- relative viability (NCI-H1437; first compound 0.005 µM): 0.295
- relative viability (NCI-H1437; first compound 0.01581 µM): 0.317
- relative viability (NCI-H1437; first compound 0.05 µM): 0.2
- relative viability (NCI-H1437; first compound 0.1581 µM): 0.291
- relative viability (NCI-H1437; first compound 0.5 µM): 0.308
- relative viability (NCI-H1666; first compound 0.005 µM): 0.623
- relative viability (NCI-H1666; first compound 0.01581 µM): 0.69
- relative viability (NCI-H1666; first compound 0.05 µM): 0.666
- relative viability (NCI-H1666; first compound 0.1581 µM): 0.665
- relative viability (NCI-H1666; first compound 0.5 µM): 0.726
- relative viability (NCI-H1792; first compound 0.005 µM): 0.651
- relative viability (NCI-H1792; first compound 0.01581 µM): 0.661
- relative viability (NCI-H1792; first compound 0.05 µM): 0.563
- relative viability (NCI-H1792; first compound 0.1581 µM): 0.628
- relative viability (NCI-H1792; first compound 0.5 µM): 0.647
- relative viability (NCI-H1975; first compound 0.005 µM): 0.533
- relative viability (NCI-H1975; first compound 0.01581 µM): 0.661
- relative viability (NCI-H1975; first compound 0.05 µM): 0.437
- relative viability (NCI-H1975; first compound 0.1581 µM): 0.532
- relative viability (NCI-H1975; first compound 0.5 µM): 0.585
- relative viability (NCI-H23; first compound 0.005 µM): 0.518
- relative viability (NCI-H23; first compound 0.01581 µM): 0.53
- relative viability (NCI-H23; first compound 0.05 µM): 0.496
- relative viability (NCI-H23; first compound 0.1581 µM): 0.446
- relative viability (NCI-H23; first compound 0.5 µM): 0.534
- relative viability (NCI-H358; first compound 0.005 µM): 0.128
- relative viability (NCI-H358; first compound 0.01581 µM): 0.147
- relative viability (NCI-H358; first compound 0.05 µM): 0.142
- relative viability (NCI-H358; first compound 0.1581 µM): 0.121
- relative viability (NCI-H358; first compound 0.5 µM): 0.134
- relative viability (NCI-H441; first compound 0.005 µM): 0.225
- relative viability (NCI-H441; first compound 0.01581 µM): 0.268
- relative viability (NCI-H441; first compound 0.05 µM): 0.192
- relative viability (NCI-H441; first compound 0.1581 µM): 0.216
- relative viability (NCI-H441; first compound 0.5 µM): 0.284
- relative viability (NCI-H650; first compound 0.005 µM): 0.326
- relative viability (NCI-H650; first compound 0.01581 µM): 0.35
- relative viability (NCI-H650; first compound 0.05 µM): 0.315
- relative viability (NCI-H650; first compound 0.1581 µM): 0.304
- relative viability (NCI-H650; first compound 0.5 µM): 0.336
- relative viability (NCI-H838; first compound 0.005 µM): 0.193
- relative viability (NCI-H838; first compound 0.01581 µM): 0.253
- relative viability (NCI-H838; first compound 0.05 µM): 0.177
- relative viability (NCI-H838; first compound 0.1581 µM): 0.209
- relative viability (NCI-H838; first compound 0.5 µM): 0.224
- relative viability (SK-MES-1; first compound 0.005 µM): 0.332
- relative viability (SK-MES-1; first compound 0.01581 µM): 0.343
- relative viability (SK-MES-1; first compound 0.05 µM): 0.336
- relative viability (SK-MES-1; first compound 0.1581 µM): 0.303
- relative viability (SK-MES-1; first compound 0.5 µM): 0.385
- relative viability (SW 900; first compound 0.005 µM): 0.565
- relative viability (SW 900; first compound 0.01581 µM): 0.651
- relative viability (SW 900; first compound 0.1581 µM): 0.55
- relative viability (SW 900; first compound 0.5 µM): 0.518

— the supplement of paper PMC10307832
